According to publication PMC6646235, “Structure and ligand binding of As-p18, an extracellular fatty acid binding protein from the eggs of a parasitic nematode” (Bioscience Reports, 2019):

Tests used:
As-p18 [1] = molecular target: T1, As-p18 (Ascaris suum, UniProt P55776); experiment: X-ray crystallography at […] Å; GC-MS of co-purified lipid; type: binding; settings: co-purified from E. coli; pH 4.5 crystal; ligand density incomplete, vaccenate modelled
T1 construct: mature protein without secretion signal peptide, N-terminal His-tag (pQE-30/As-p18), expressed in E. coli BL21 (DE3); monomer; delipidated by RP-HPLC for NMR, co-purified lipid retained for crystal
T1 sequence (P55776 21-163): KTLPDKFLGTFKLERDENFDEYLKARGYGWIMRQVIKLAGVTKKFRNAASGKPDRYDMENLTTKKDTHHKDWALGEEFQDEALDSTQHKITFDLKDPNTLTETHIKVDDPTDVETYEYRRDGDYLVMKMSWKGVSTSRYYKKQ

As-p18 [2] = molecular target: T1, As-p18; experiment: isothermal titration calorimetry; complex also solved by solution NMR; type: binding

| SMILES | X-ray crystallography at 2.3 Å; GC-MS of co-purified lipid (As-p18 [1]) | Kd (As-p18 [2]) |
| --- | --- | --- |
| CCCCCC/C=C\CCCCCCCCCC(=O)O [vaccenate, cis-11-octadecenoate] | The two X-ray structures of As-p18 in complex with vaccenate | – |
| CCCCCCCC/C=C\CCCCCCCC(=O)O [oleic acid] | – | 3.1 µM |
